Patent publication US8796296B2, “Aminopyrimidine derivatives as LRRK2 modulators” (Genentech, Inc., priority 2011, dated 2014)

Target: LRRK2 (Homo sapiens (Human), UniProt Q5S007, G2019S)
Assay: In Vitro LRRK2 LabChip Assay (LRRK2 Ki)
Assay type: biochemical
Experimental: In Vitro LRRK2 LabChip Assay
This assay was used to determine a compound's potency in inhibiting activity of LRRK2 by determining, Kiapp, IC50, or percent inhibition values. In a polypropylene plate, LRRK2, fluorescently-labeled peptide substrate, ATP and test compound were incubated together. Using a LabChip 3000 (Caliper Life Sciences), after the reaction the substrate was separated by capillary electrophoresis into two populations: phosphorylated and unphosphorylated. The relative amounts of each were quantitated by fluorescence intensity. LRRK2 Ki was determined according to the equation: Y=V0*(1−((x+Ki*(1+S/Km)+Et)/(2*Et)−(((x+Ki*(1+S/Km)+Et)^2−(4*Et*x))^0.5)/(2*Et))). Ki values in Table 4 and elsewhere herein are shown in μM.
Assay conditions and materials used were as follows:
LRRK2 Wild type in 5 mM MgCl2: 15 nM (Invitrogen lot #500607F)
Kinase reaction time: 2 hours
Wild type in 5 mM MgCl2: 80 μM
Kinase: LRRK2 G2019S (Invitrogen cat #PV4882). • LRRK2 Wild type (Invitrogen cat #PV4874).
Substrate: 5FAM-GAGRLGRDKYKTLRQIRQ-CONH2
Complete Reaction Buffer: H2O/25 mM Tris, pH 8.0/5 mM MgCl2/2 mM DTT/0.01% Triton X-100.
For serial dilutions, 34.6 μl DMSO was added to columns 3-24. For the assay controls, 37.5 μl DMSO was added to columns 1 and 2 of rows A and P. a,d and 50 μl 25 μM G-028831 (Staurosporine) was added to columns 1 and 2, row B. For the samples: to start at 100 μM, 37.5 μl DMSO was to columns 1 and 2, then 12.5 μl 10 mM compound; to start at 10 μM, 78 μl DMSO was added to columns 1 & 2, then 2 μl 10 mM compound; and to start at 1 μM, 25 μM compound (2 μl 10 mM cmpd+798 μl DMSO) was added to empty columns 1 and 2. A Precision instrument was used to perform 1:3.16 serial dilutions (“PLK_BM_serial_halflog”).
ATP was diluted to 282.1 μM in Complete Kinase Buffer (final concentration was 130 μM).
In Complete Reaction Buffer, substrate was diluted to 4 μM. Equal volumes of Complete Reaction Buffer and 4 μM substrate were combined to obtain the blank. Equal volumes of Complete Reaction Buffer and 4 μM substrate were combined and to the combined solution was added 2× final LRRK2 concentration.
To a 50 μl polypropylene plate, 5 μl/well buffer/substrate was added by hand to Blank wells. A Biomek FX was used to start the kinase reaction (“PLK SAR 23 ATP”). The following were added to the appropriate wells:
The plate was incubated for 2 hours in the dark. Biomek FX was used to stop the kinase reaction (“PLK Stop”), and 10 μl/well Stop solution was added to the Assay Plate.
Results were read on the LabChip 3000.
The LabChip 3000 was run using the job “LRRK2 IC50” with the following job settings: […]

Sequence of LRRK2 (Q5S007 whole entry G2019S): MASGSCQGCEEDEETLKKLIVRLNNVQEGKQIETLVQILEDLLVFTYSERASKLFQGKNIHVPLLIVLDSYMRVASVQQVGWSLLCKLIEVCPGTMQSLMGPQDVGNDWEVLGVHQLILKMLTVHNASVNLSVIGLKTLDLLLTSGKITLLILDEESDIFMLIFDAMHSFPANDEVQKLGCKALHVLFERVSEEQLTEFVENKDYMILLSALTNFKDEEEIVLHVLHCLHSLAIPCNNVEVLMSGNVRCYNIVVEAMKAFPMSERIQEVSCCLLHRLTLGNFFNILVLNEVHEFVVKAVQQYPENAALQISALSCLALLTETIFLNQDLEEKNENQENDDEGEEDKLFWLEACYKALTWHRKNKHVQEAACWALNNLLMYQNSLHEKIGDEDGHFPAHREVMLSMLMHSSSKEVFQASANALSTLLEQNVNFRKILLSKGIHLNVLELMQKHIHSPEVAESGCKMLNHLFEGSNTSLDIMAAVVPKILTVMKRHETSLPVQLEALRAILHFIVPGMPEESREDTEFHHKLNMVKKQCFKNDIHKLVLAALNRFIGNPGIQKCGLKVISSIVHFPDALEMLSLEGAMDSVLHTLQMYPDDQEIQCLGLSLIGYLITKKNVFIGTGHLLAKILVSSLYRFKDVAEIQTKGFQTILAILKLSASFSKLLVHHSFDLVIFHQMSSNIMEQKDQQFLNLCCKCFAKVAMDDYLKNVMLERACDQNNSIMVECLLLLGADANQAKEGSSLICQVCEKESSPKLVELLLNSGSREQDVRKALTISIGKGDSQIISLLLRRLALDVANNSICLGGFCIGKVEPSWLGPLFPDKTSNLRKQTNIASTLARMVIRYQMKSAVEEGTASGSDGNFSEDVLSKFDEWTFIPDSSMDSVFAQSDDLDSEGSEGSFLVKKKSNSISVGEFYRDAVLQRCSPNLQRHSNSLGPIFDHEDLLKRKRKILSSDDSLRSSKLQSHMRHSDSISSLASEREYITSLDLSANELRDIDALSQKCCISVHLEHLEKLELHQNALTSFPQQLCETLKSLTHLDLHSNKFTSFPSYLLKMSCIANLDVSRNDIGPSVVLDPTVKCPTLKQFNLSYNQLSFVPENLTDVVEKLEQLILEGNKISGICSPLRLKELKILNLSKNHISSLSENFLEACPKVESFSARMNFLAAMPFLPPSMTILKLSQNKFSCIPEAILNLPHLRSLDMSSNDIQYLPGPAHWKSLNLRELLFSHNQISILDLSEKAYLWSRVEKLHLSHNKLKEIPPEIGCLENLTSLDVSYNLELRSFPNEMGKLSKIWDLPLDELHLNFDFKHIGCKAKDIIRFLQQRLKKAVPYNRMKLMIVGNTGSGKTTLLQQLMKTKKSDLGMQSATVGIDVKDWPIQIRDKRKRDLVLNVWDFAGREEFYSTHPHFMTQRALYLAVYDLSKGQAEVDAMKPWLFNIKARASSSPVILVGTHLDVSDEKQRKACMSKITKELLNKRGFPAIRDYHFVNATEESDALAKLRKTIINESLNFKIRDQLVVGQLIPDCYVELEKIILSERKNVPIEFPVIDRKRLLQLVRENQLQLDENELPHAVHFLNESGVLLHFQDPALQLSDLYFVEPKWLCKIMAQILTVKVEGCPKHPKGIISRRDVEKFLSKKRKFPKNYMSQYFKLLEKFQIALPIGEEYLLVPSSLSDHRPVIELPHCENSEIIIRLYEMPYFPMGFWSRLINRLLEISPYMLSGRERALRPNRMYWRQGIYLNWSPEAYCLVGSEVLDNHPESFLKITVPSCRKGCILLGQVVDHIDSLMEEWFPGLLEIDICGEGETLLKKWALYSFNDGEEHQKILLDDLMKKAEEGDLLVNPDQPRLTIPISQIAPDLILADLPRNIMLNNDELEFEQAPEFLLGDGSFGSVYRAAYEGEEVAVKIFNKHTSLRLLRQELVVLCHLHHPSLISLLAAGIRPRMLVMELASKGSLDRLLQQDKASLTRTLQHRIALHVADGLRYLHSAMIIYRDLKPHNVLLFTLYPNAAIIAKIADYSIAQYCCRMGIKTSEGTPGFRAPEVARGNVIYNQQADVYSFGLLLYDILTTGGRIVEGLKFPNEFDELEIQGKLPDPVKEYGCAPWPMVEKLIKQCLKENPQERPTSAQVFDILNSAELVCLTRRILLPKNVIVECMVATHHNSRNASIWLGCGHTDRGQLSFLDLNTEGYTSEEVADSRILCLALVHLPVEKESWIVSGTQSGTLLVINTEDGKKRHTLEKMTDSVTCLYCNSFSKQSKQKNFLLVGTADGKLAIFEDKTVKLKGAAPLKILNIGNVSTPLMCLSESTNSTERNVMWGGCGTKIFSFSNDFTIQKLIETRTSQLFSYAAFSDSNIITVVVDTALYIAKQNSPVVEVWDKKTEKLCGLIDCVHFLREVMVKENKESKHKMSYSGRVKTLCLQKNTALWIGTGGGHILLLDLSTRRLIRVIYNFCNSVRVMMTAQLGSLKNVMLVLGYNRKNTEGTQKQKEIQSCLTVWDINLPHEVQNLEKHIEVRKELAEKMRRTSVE

Row | Structure (SMILES) | Ki
1 | CNc1nc(Nc2cc3c(cc2Cl)C(=O)N(C)CCO3)ncc1C(F)(F)F [Compound 1, 7-chloro-4-methyl-8-(4-(methylamino)-5-(trifluoromethyl)pyrimidin-2-ylamino)-3,4-dihydrobenzo[f][1,4]oxazepin-5(2H)-one] | 3 nM
2 | CNc1nc(Nc2cc3c(cc2OC)N(C)C(=O)C(C)(C)O3)ncc1Cl [Compound 2, 7-((5-chloro-4-(methylamino)pyrimidin-2-yl)amino)-6-methoxy-2,2,4-trimethyl-2H-benzo[b][1,4]oxazin-3(4H)-one] | 1 nM
3 | CNc1nc(Nc2cc3oc(C(=O)N(C)C)cc3cc2OC)ncc1C(F)(F)F [Compound 3, 5-methoxy-N,N-dimethyl-6-((4-(methylamino)-5-(trifluoromethyl)pyrimidin-2-yl)amino)benzofuran-2-carboxamide] | 1 nM
4 | CNc1nc(Nc2cc3c(cc2Cl)n(C)c(=O)n3C)ncc1C(F)(F)F [Compound 4, 5-chloro-1,3-dimethyl-6-((4-(methylamino)-5-(trifluoromethyl)pyrimidin-2-yl)amino)-1H-benzo[d]imidazol-2(3H)-one] | 2 nM
5 | CNc1nc(Nc2cc3oc(=O)n(C)c3cc2Cl)ncc1C(F)(F)F [Compound 5, 5-chloro-3-methyl-6-((4-(methylamino)-5-(trifluoromethyl)pyrimidin-2-yl)amino)benzo[d]oxazol-2(3H)-one] | 4 nM
6 | CNc1nc(Nc2cc3nc(C)oc3cc2Cl)ncc1C(F)(F)F [Compound 6, N^2-(6-chloro-2-methylbenzo[d]oxazol-5-yl)-N^4-methyl-5-(trifluoromethyl)pyrimidine-2,4-diamine] | 5 nM
7 | CNc1nc(Nc2cc3c(cc2OC)CN(C)C3=O)ncc1C(F)(F)F [Compound 7, 5-methoxy-2-methyl-6-(4-(methylamino)-5-(trifluoromethyl)pyrimidin-2-ylamino)isoindolin-1-one] | 5 nM
8 | CNc1nc(Nc2cc3c(cc2Cl)C(=O)N(C)C3)ncc1Cl [Compound 8, 6-chloro-5-(5-chloro-4-(methylamino)pyrimidin-2-ylamino)-2-methylisoindolin-1-one] | 3 nM
9 | CNc1nc(Nc2cc3c(cc2Cl)C(=O)N(C)C3)ncc1C(F)(F)F [Compound 9, 6-chloro-2-methyl-5-(4-(methylamino)-5-(trifluoromethyl)pyrimidin-2-ylamino)isoindolin-1-one] | 1 nM
10 | CNc1nc(Nc2ccc3c(c2OC)CN(C2CC2)C3=O)ncc1C(F)(F)F [Compound 10, 2-cyclopropyl-4-methoxy-5-(4-(methylamino)-5-(trifluoromethyl)pyrimidin-2-ylamino)isoindolin-1-one] | 7 nM
11 | CNc1nc(Nc2ccc3c(c2OC)CN(C)C3=O)ncc1C(F)(F)F [Compound 11, 4-methoxy-2-methyl-5-(4-(methylamino)-5-(trifluoromethyl)pyrimidin-2-ylamino)isoindolin-1-one] | 1 nM
12 | CNc1nc(Nc2cc3c(cc2OC)N(C)C(=O)C(C)(C)O3)ncc1C(F)(F)F [Compound 12, 6-methoxy-2,2,4-trimethyl-7-(4-(methylamino)-5-(trifluoromethyl)pyrimidin-2-ylamino)-2H-benzo[b][1,4]oxazin-3(4H)-one] | 8 nM
13 | CNc1nc(Nc2cc3oc(=O)[nH]c3cc2Cl)ncc1Cl [Compound 13, 5-chloro-6-(5-chloro-4-(methylamino)pyrimidin-2-ylamino)benzo[d]oxazol-2(3H)-one] | 4 nM
14 | CNc1nc(Nc2cc3c(cc2OC)C(=O)N(C)CC3)ncc1C(F)(F)F [Compound 15, 7-methoxy-2-methyl-6-(4-(methylamino)-5-(trifluoromethyl)pyrimidin-2-ylamino)-3,4-dihydroisoquinolin-1(2H)-one] | 7 nM
15 | CNc1nc(Nc2cc3c(cc2OC)C(=O)N(C)CC3)ncc1C#N [Compound 16, 2-(7-methoxy-2-methyl-1-oxo-1,2,3,4-tetrahydroisoquinolin-6-ylamino)-4-(methylamino)pyrimidine-5-carbonitrile] | 44 nM
